Assay results published in ChEMBL document CHEMBL1201862, “PubChem BioAssay data set” (2004).
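Following 48 hours of exposure in 96-well plates, responses at five concentrations were used to interpolate endpoints linearly. GI50 = concentration required for 50% inhibition of growth.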 Activity calls are given as the source filed them. Cut-off read from the data, not from the text of the source: active = GI50 up to about 1.1 µM and inactive = higher.

Columns and labels:
Test in all cases: inhibition of tumour cell growth, NCI panel, 48 h
HCC 2998 = tested on: HCC 2998
NCI-H460 = tested on: NCI-H460
MDA-N = tested on: MDA-N
HCT-116 = tested on: HCT-116
HL-60 = tested on: HL-60
SNB-19 = tested on: SNB-19
ACHN = tested on: ACHN
MOLT-4 = tested on: MOLT-4
NCI-H23 = tested on: NCI-H23
SF-295 = tested on: SF-295
UACC-62 = tested on: UACC-62
RPMI-8226 = tested on: RPMI-8226
SF-539 = tested on: SF-539
OVCAR-5 = tested on: OVCAR-5
MDA-MB-435 = tested on: MDA-MB-435
CCRF-CEM = tested on: CCRF-CEM
M14 = tested on: M14
IGROV-1 = tested on: IGROV-1
T47D = tested on: T47D
MDA-MB-231 = tested on: MDA-MB-231

Compound | GI50 (HCC 2998) | GI50 (NCI-H460) | GI50 (MDA-N) | GI50 (HCT-116) | GI50 (HL-60) | GI50 (SNB-19) | GI50 (ACHN) | GI50 (MOLT-4) | GI50 (NCI-H23) | GI50 (SF-295) | GI50 (UACC-62) | GI50 (RPMI-8226) | GI50 (SF-539) | GI50 (OVCAR-5) | GI50 (MDA-MB-435) | GI50 (CCRF-CEM) | GI50 (M14) | GI50 (IGROV-1) | GI50 (T47D) | GI50 (MDA-MB-231)
O=C(C(=C(I)I)c1ccccc1)c1ccccc1 | > 10 µM (inactive) | 27.5 µM (inactive) | 19.1 µM (inactive) | 17.1 µM (inactive) | 13.2 µM (inactive) | 29.9 µM (inactive) | 29.7 µM (inactive) | 19.8 µM (inactive) | 21 µM (inactive) | 21.7 µM (inactive) | 18.2 µM (inactive) | 19.5 µM (inactive) | 24.8 µM (inactive) | 86.3 µM (inactive) | 31.1 µM (inactive) | 1.08 µM (active) | 25 µM (inactive) | 8.63 µM (inactive) | – | –
S=C(NN=C1NCCCN1)Nc1ccccc1 | > 100 µM (inactive) | > 100 µM (inactive) | – | > 100 µM (inactive) | 52.8 µM (inactive) | > 100 µM (inactive) | > 100 µM (inactive) | 48.3 µM (inactive) | > 100 µM (inactive) | > 100 µM (inactive) | > 100 µM (inactive) | 28.2 µM (inactive) | > 100 µM (inactive) | > 100 µM (inactive) | > 100 µM (inactive) | 43.3 µM (inactive) | – | > 100 µM (inactive) | > 100 µM (inactive) | –
CCCCNc1nc(N)nc(Nc2ccc(Br)cc2)c1N=O | 87.7 µM (inactive) | 70 µM (inactive) | > 100 µM (inactive) | 84.9 µM (inactive) | 17.9 µM (inactive) | > 100 µM (inactive) | 60.3 µM (inactive) | 18.8 µM (inactive) | > 100 µM (inactive) | – | 62.7 µM (inactive) | 52 µM (inactive) | 80.2 µM (inactive) | 77.4 µM (inactive) | > 100 µM (inactive) | 42.1 µM (inactive) | > 100 µM (inactive) | > 100 µM (inactive) | – | 41.8 µM (inactive)
CC(=O)Oc1cc(C)c(OC(C)=O)c2c1[C@H]1CC[C@]3(C)[C@@H](OC(C)=O)CC[C@H]3[C@@H]1CC2 | 13.9 µM (inactive) | 17.7 µM (inactive) | 14.6 µM (inactive) | 16.6 µM (inactive) | 20 µM (inactive) | 17.8 µM (inactive) | 14.6 µM (inactive) | 11.6 µM (inactive) | 18.4 µM (inactive) | 20.7 µM (inactive) | 17.7 µM (inactive) | 19.5 µM (inactive) | 19.2 µM (inactive) | 21.5 µM (inactive) | 14.4 µM (inactive) | 17.9 µM (inactive) | 16.3 µM (inactive) | 17.1 µM (inactive) | – | 17.1 µM (inactive)
Cn1/c(=N\c2ccc(Cl)cc2)sc2ccccc21 | 23.7 µM (inactive) | 40.7 µM (inactive) | – | 37 µM (inactive) | 44.9 µM (inactive) | > 100 µM (inactive) | 49.8 µM (inactive) | 48.2 µM (inactive) | 38.9 µM (inactive) | 33.4 µM (inactive) | 40.6 µM (inactive) | 92.3 µM (inactive) | 85.1 µM (inactive) | 34.8 µM (inactive) | 42.1 µM (inactive) | > 100 µM (inactive) | – | 55.3 µM (inactive) | 15 µM (inactive) | 35.5 µM (inactive)
C/C(=N/NC(=S)Nc1cccc(Cl)c1)c1ccccn1 | 1.82 µM (inactive) | 0.357 µM (active) | 0.776 µM (active) | < 0.0161 µM (active) | < 0.0141 µM (active) | 2.5 µM (inactive) | 0.194 µM (active) | < 0.0156 µM (active) | 0.463 µM (active) | 0.366 µM (active) | 0.202 µM (active) | 0.029 µM (active) | 0.593 µM (active) | 0.0474 µM (active) | 1.31 µM (inactive) | < 0.0174 µM (active) | 0.242 µM (active) | 0.0395 µM (active) | – | < 0.0172 µM (active)
CC(C)(Oc1ccc(Cl)cc1)C(=O)N(C(=O)N1CCC(c2ccccc2)CC1)c1ccccc1 | 41.4 µM (inactive) | 16 µM (inactive) | – | 4.78 µM (inactive) | 1.6 µM (inactive) | > 100 µM (inactive) | 40.6 µM (inactive) | 7.05 µM (inactive) | 8.79 µM (inactive) | 23.8 µM (inactive) | > 57.5 µM (inactive) | 2.99 µM (inactive) | > 100 µM (inactive) | > 100 µM (inactive) | > 100 µM (inactive) | 3.03 µM (inactive) | 65 µM (inactive) | > 53.2 µM (inactive) | 7 µM (inactive) | > 100 µM (inactive)
Cc1ccc(S(=O)(=O)n2cnc(CC(NC(=O)C3CCC(=O)N3C(=O)OCc3ccccc3)C(=O)N3CCCC3C(=O)NN)c2)cc1 (configuration not stated) | > 100 µM (inactive) | > 100 µM (inactive) | > 100 µM (inactive) | > 100 µM (inactive) | > 100 µM (inactive) | 48.8 µM (inactive) | > 100 µM (inactive) | > 100 µM (inactive) | > 100 µM (inactive) | – | – | > 100 µM (inactive) | – | > 100 µM (inactive) | – | – | > 100 µM (inactive) | > 100 µM (inactive) | – | > 100 µM (inactive)
